# Experimental data reported in patent publication US20050059684A1, “Method for reducing residual alcohols in crystalline valacyclovir hydrochloride” (priority 2002, published 2005).
# Structures can show the parent of a compound that is named as a salt.
# Experiment: Storage stability of valacyclovir hydrochloride: N′-formylvalacyclovir impurity level by HPLC
# Format: physicochemical
# Conditions: HPLC area percent; for N′-formylvalacyclovir level (area %), T = 0: before storage; for N′-formylvalacyclovir level (area %), T = 3 month, 25° C., 60% humidity: stored three months at 25° C. and 60% RH; for N′-formylvalacyclovir level (area %), T = 3 month, 40° C., 75% humidity: stored three months at 40° C. and 75% RH
# Source text: When used herein in connection with the absolute amount of an impurity, percent refers to area percent of the corresponding impurity peak on the chromatogram obtained by high pressure liquid chromatography. [drawing 2]
# Impurities in valacyclovir, especially N′-formylvalacyclovir, can be measure by high pressure liquid chromatography. The chromatographic method utilizes a suitable chromatography column such as the reverse phase column Inertsil ODS-3V 5 μm 150×4.6 mm (GL Sciences, Cat. No. 5020-01731). The eluent is preferably acetonitrile (27%) and water (73%) containing 0.05% phosphoric acid (0.5 g 85% H3PO4 in 1 L water). A flow rate of about 1.0 mL/min is suitable for the separation. The column temperature can be at ambient temperature, preferably about 25° C. The detector can be a UV-spectrophotometer operating in the range of 200-600 nm, preferably about 210 nm. The injection (sample) volume is about 50 μL. The diluent used to load the sample onto the column can be, for example, the eluent.
# A sample of valacyclovir hydrochloride (sample X) having circa 1700 ppm residual solvent isopropanol was divided into two portions. One portion was treated by the method of the present invention and, after treatment, had less than 500 ppm residual isopropanol (sample Y). Sample Y and the non-treated portion of sample X were each divided into two roughly equal portions. One portion of each samplewas stored at 25° C. and 60% RH for three months, the other portions of each were stored at 40° C. and 75% RH for three months. The amount of N′-formylvalacyclovir in each of the four portions after storage was determined by HPLC.
compound,measurement,value
"CC(C)C(N)C(=O)OCCOCn1cnc2c(=O)nc(N)[nH]c21 (stereo not drawn) [X, valacyclovir hydrochloride]","N′-formylvalacyclovir level (area %), T = 0",0.05 area %
same,"N′-formylvalacyclovir level (area %), T = 3 month, 25° C., 60% humidity",0.08 area %
same,"N′-formylvalacyclovir level (area %), T = 3 month, 40° C., 75% humidity",0.15 area %
"CC(C)C(N)C(=O)OCCOCn1cnc2c(=O)nc(N)[nH]c21 (stereo not drawn) [Y, valacyclovir hydrochloride]","N′-formylvalacyclovir level (area %), T = 0",0.03 area %
same,"N′-formylvalacyclovir level (area %), T = 3 month, 25° C., 60% humidity",0.03 area %
same,"N′-formylvalacyclovir level (area %), T = 3 month, 40° C., 75% humidity",0.05 area %
